Data taken from PubChem BioAssay (NCI).
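In this assay, cells in 96-well plates receive the compound at five concentrations for 48 hours. Endpoints are linearly interpolated between the surrounding concentrations. At the GI50, growth is halved. TGI is the concentration that stops growth completely.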

Columns and labels:
Assay in all cases: DTP human tumour cell line panel, 48 h
SF-295 CNS = test system: SF-295 CNS
OVCAR-4 ovarian = test system: OVCAR-4 ovarian
U251 CNS = test system: U251 CNS
LOX IMVI melanoma = test system: LOX IMVI melanoma
UACC-257 melanoma = test system: UACC-257 melanoma
CCRF-CEM leukemia = test system: CCRF-CEM leukemia
HOP-62 NSCLC = test system: HOP-62 NSCLC
T-47D breast = test system: T-47D breast
HCC-2998 colon = test system: HCC-2998 colon
MCF7 breast = test system: MCF7 breast
MDA-MB-231 breast = test system: MDA-MB-231 breast

| Structure (SMILES) | TGI (SF-295 CNS) | TGI (OVCAR-4 ovarian) | TGI (U251 CNS) | TGI (LOX IMVI melanoma) | TGI (UACC-257 melanoma) | TGI (CCRF-CEM leukemia) | TGI (HOP-62 NSCLC) | TGI (T-47D breast) | TGI (HCC-2998 colon) | TGI (MCF7 breast) | TGI (MDA-MB-231 breast) | GI50 (SF-295 CNS) | GI50 (U251 CNS) | GI50 (HOP-62 NSCLC) |
| --- | --- | --- | --- | --- | --- | --- | --- | --- | --- | --- | --- | --- | --- | --- |
| CC12CCC(=O)N1c1ccc([N+](=O)[O-])cc1N2 (stereo unspecified) | > 100 µM | > 100 µM | > 100 µM | > 100 µM | > 100 µM | > 100 µM | > 100 µM |  |  |  |  |  |  |  |
| CCCCC1(C)C=C/C(=C2/C(=O)O/C(=C\C(=O)O)C2=O)O1 (stereo unspecified) | > 100 µM | > 100 µM | > 100 µM | > 100 µM | > 100 µM | > 100 µM | > 100 µM |  |  |  |  |  |  |  |
| COc1c(=O)cc2cc[nH]c3ccn(C)c1c23 | > 100 µM | > 100 µM | > 100 µM | > 100 µM | > 100 µM |  | > 100 µM | > 100 µM | > 100 µM | > 100 µM | > 100 µM |  |  |  |
| Nc1c([N+](=O)[O-])nc(Cl)c2nncn12 | > 100 µM | > 100 µM | > 100 µM | > 61.1 µM | > 100 µM | > 68.2 µM | > 100 µM |  | > 100 µM |  |  |  |  |  |
| CC1(c2ccccc2Cl)C(C#N)C(=O)NC(=O)C1C#N (stereo unspecified) | > 100 µM | > 100 µM |  | > 100 µM | > 100 µM | > 100 µM | > 100 µM |  | > 100 µM |  |  |  |  |  |
| CCOC(=O)C1(F)S(=O)(=O)OCCOS1(=O)=O | > 100 µM | > 100 µM | > 100 µM | > 100 µM | > 100 µM |  | > 100 µM | > 100 µM | > 100 µM | > 100 µM |  |  |  |  |
| CC(=O)Oc1ccc(/C=C/C(=O)OCCCOC(=O)/C=C/c2ccc(OC(C)=O)c(OC(C)=O)c2)cc1OC(C)=O | > 100 µM | > 100 µM | > 100 µM | > 100 µM | > 100 µM |  | > 100 µM | > 100 µM | > 100 µM | > 100 µM | > 100 µM |  |  |  |
| [O-]c1c2cc(-[n+]3c(-c4ccccc4)cc(-c4ccccc4)cc3-c3ccccc3)cc1COCCOCCOCCOCCOC2 | > 100 µM | > 100 µM | > 100 µM | > 100 µM | 82.5 µM | > 100 µM | > 100 µM |  | > 100 µM |  |  |  |  |  |
| O=C(c1nc2ccccc2[nH]c1=O)C(O)c1ccccc1 (stereo unspecified) | > 100 µM | > 100 µM | > 100 µM | > 100 µM | > 100 µM | > 100 µM | > 100 µM |  | > 100 µM |  |  |  |  |  |
| CC(=O)OCCOCNC(=S)N/N=C/c1cc(Br)cs1 | > 100 µM | > 100 µM | > 100 µM | > 100 µM | > 100 µM | > 100 µM | > 100 µM |  | > 100 µM |  |  |  |  |  |
| CC1(C)CC(=O)C(/C(=N/NC(=S)NN)C(=O)Nc2nc3ccc([N+](=O)[O-])cc3s2)C(=O)C1 | > 100 µM | > 100 µM | > 100 µM | > 100 µM | > 100 µM | > 100 µM | > 100 µM |  | > 100 µM |  |  |  |  |  |
| COc1ccc(CCC2c3cc(OC)c(OC)cc3CCN2C)cc1OC (stereo unspecified) | > 100 µM | > 100 µM | > 100 µM | > 100 µM | > 100 µM | > 100 µM | > 100 µM |  | > 100 µM |  |  |  |  |  |
| O=C(CCC1C(=O)NC(=S)NC1=O)c1ccc2ccccc2c1 | > 100 µM | > 100 µM | > 100 µM | > 100 µM | > 100 µM | > 100 µM | > 100 µM |  | > 100 µM |  |  |  |  |  |
| NC1CC(=O)c2c1sc(Cl)c2Cl (stereo unspecified) |  |  | > 100 µM |  | > 100 µM | > 100 µM | > 100 µM | > 100 µM | > 100 µM | > 100 µM | > 100 µM |  |  |  |
| O=C(NC1CCN(Cc2ccccc2)CC1)c1ccc(I)cc1 | > 100 µM | > 100 µM | > 100 µM | > 100 µM | > 100 µM | > 100 µM | > 100 µM | > 100 µM |  |  | > 100 µM |  |  |  |
| CCOC(=O)NNC(=O)NCc1cccc(CNC(=O)NNC(=O)OCC)c1 |  | > 100 µM | > 100 µM | > 100 µM | > 100 µM | > 100 µM |  | > 100 µM | > 100 µM | > 100 µM | > 100 µM |  |  |  |
| C/C=C/C#CC#C/C=C/C=C/C(O)CCO (stereo unspecified) | > 23.1 µM | > 23.1 µM | > 23.1 µM | > 23.1 µM | > 23.1 µM | > 23.1 µM | > 23.1 µM |  | > 23.1 µM |  |  |  |  |  |
| COc1ccc(OC)c(N(CN2C(=O)CCC2C(=O)O)C(C)=O)c1 (stereo unspecified) | > 100 µM | > 100 µM | > 100 µM | > 100 µM | > 100 µM | > 100 µM | > 100 µM | > 100 µM |  | > 100 µM | > 100 µM |  |  |  |
| COC(=O)C(CCSC)NC(=O)CNC(=O)CSc1nnc(COc2ccc(Cl)cc2)n1-c1ccccc1 (stereo unspecified) |  | 50.1 µM | 31 µM | 23.8 µM | 32.2 µM | 26.1 µM | 34.9 µM | 54.7 µM | 27 µM | 39.6 µM | 29.4 µM |  |  |  |
| C=C1CC(c2ccc(OCCCN3C(=O)c4ccccc4C3=O)cc2)OC1=O (stereo unspecified) | 25.5 µM |  | 10.7 µM | 3.77 µM | 7.55 µM | 4.56 µM | 33.2 µM | > 34.7 µM | 16.8 µM | 6.46 µM | 13 µM |  |  |  |
| COC(=O)c1ccc(S)c(S(=O)(=O)Nc2n[nH]c(N)n2)c1 | > 100 µM | > 100 µM | > 100 µM | > 100 µM | > 100 µM | > 100 µM |  | > 100 µM |  |  | > 100 µM |  |  |  |
| C=C1CCC2[C@@H](CCC3[C@]2(C)CCC[C@]3(C)C(=O)OC)C1CC=O (stereo partly specified) | 31.3 µM | 32 µM | 33.5 µM |  | 31 µM | 35.2 µM | 39.8 µM |  |  |  |  | 16.8 µM | 17.8 µM | 21.2 µM |
| CC(C)(C)C1=CC(C)(n2[nH]c(=O)n(-c3ccccc3)c2=O)C=C(C(C)(C)C)C1=O | > 100 µM | > 100 µM | > 100 µM | > 100 µM | > 100 µM |  |  | > 100 µM | > 100 µM | > 100 µM | > 100 µM |  |  |  |
